Reference: US10774051B2, “6-membered heterocyclic derivatives and pharmaceutical composition comprising the same” (Shionogi & Co., Ltd., priority 2015, dated 2020)

biological target: human P2X7 receptor (Homo sapiens, UniProt Q99572, R270H/Y155H); assay: Evaluation of human P2X7 receptor inhibitory activity (Yo-Pro uptake, BzATP stimulation, FLIPR TETRA); format: cell-based; conditions: 1321N1 cells stably expressing human P2X7 receptor; BzATP stimulation, Yo-Pro uptake; read-out: IC50 (antagonistic activity for the human P2X7 receptor)
Method in brief: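 Yo-Pro dye uptake triggered by BzATP was monitored by FLIPR in human P2X7-transfected 1321N1 cells (SNP variant) in HEPES-buffered HBSS, pH 7.4-7.5. Compound was dispensed 8 min post-stimulation, then signal read for 20 min; IC50 derived logistically from inhibition of the fluorescence range.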

Point of comparison: `COc1cn(Cc2ccccc2)c(Nc2cc3nc(C)sc3cc2C)nc1=O` [Compound I-0744], IC50 180 nM. Against it:
- COc1cc(Cn2cc(OC)c(=O)nc2Nc2cccc(Cl)c2C)ccc1F [Compound I-0698] — 1.8-fold lower, 100 nM
- O=c1nc(Nc2cccc3c(=O)[nH]ccc23)n(Cc2cc(F)cc(F)c2)cc1F [Compound I-0703] — 11-fold lower, 16 nM
- Cc1cc(Nc2nc(=O)c(Cl)cn2Cc2cc(F)cc(F)c2)c2cc[nH]c2c1 [Compound I-0706] — 12-fold lower, 15 nM
- COc1cn(Cc2ccsc2)c(Nc2cc(C)c(C)cc2C)nc1=O [Compound I-0738] — 60-fold lower, 3 nM
- COc1cn(Cc2ccc(F)c(Cl)c2)c(Nc2cc3c(cc2C)OCO3)nc1=O [Compound I-0742] — 11-fold lower, 16 nM
- COc1cn(Cc2ccc(F)c(Cl)c2)c(Nc2cc(S(C)(=O)=O)cc(C)c2C)nc1=O [Compound I-0755] — 15-fold lower, 12 nM

same assay, conditions: antagonistic activity for the human P2X7 receptor; read-out: IC50

First: CCOc1ccc(Nc2nc(=O)c(OC)cn2Cc2ccc(F)c(Cl)c2)c(C)c1 [Compound I-0679]
Second: CCOc1ccc(Nc2nc(=O)c(OC)cn2Cc2cc(F)cc(Cl)c2)c(C)c1 [Compound I-0681]
The IC50 of the first is lower: under 10 nM for the first, 10 to 100 nM for the second. The first is the more potent here.

Compared with `CCOc1ccc(Nc2nc(=O)c(OC)cn2Cc2cc(F)cc(F)c2)c(C)c1` [Compound I-0680], `CCOc1ccc(Nc2nc(=O)c(OC)cn2Cc2cc(F)c(F)c(F)c2)c(C)c1` [Compound I-0725] is lower in IC50: 10 to 100 nM for the first, under 10 nM for the second. The second is the more potent here.

First: COc1cn(Cc2cc(F)cc(Cl)c2)c(Nc2cccc(SC)c2C)nc1=O [Compound I-0682]
Second: COc1cn(Cc2cc(F)c(F)c(F)c2)c(Nc2cccc(SC)c2C)nc1=O [Compound I-0704]
The IC50 of the first is higher: 10 to 100 nM for the first, under 10 nM for the second. The second is the more potent here.

`COc1cccc(Nc2nc(=O)c(OC)cn2Cc2ccc(F)c(Cl)c2)c1Cl` [Compound I-0683] and `COc1cc(Nc2nc(=O)c(OC)cn2Cc2ccc(F)c(Cl)c2)c(C)cc1F` [Compound I-0686] cannot be ordered by IC50: under 10 nM for the first, under 10 nM for the second.

First: COc1cn(Cc2cc(F)cc(F)c2)c(Nc2cc(-c3cnccn3)ccc2C)nc1=O [Compound I-0684]
Second: COc1cn(Cc2cc(F)cc(F)c2)c(Nc2cc(-c3cscn3)ccc2C)nc1=O [Compound I-0753]
The IC50 of the first is higher: 10 to 100 nM for the first, under 10 nM for the second.

`COc1cn(Cc2ccc(F)c(F)c2)c(Nc2ccccc2C)nc1=O` [Compound I-0685] and `C=C(C)c1ccc(C)c(Nc2nc(=O)c(OC)cn2Cc2ccc(F)c(F)c2)c1` [Compound I-0747] fall in the same range of IC50: 10 to 100 nM for the first, 10 to 100 nM for the second.

`CCc1cc2c(cc1Nc1nc(=O)c(OC)cn1Cc1ccccc1)OCO2` [Compound I-0687] and `COc1cn(Cc2ccccc2)c(Nc2cc3c(cc2C)OCO3)nc1=O` [Compound I-0720] fall in the same range of IC50: 10 to 100 nM for the first, 10 to 100 nM for the second.

Compared with `CCc1cc2c(cc1Nc1nc(=O)c(OC)cn1Cc1ccc(F)c(Cl)c1)OCO2` [Compound I-0688], `CCc1cc2c(cc1Nc1nc(=O)c(OC)cn1Cc1ccc(F)c(Cl)c1)OC(F)(F)O2` [Compound I-0730] is higher in IC50: under 10 nM for the first, 10 to 100 nM for the second.

First: COc1cn(Cc2ccc(F)c(F)c2)c(Nc2cccc3c(=O)[nH]ccc23)nc1=O [Compound I-0689]
Second: COc1cn(Cc2ccc(F)c(F)c2)c(Nc2cc(-c3cscn3)ccc2C)nc1=O [Compound I-0751]
The IC50 of the first is higher: 10 to 100 nM for the first, under 10 nM for the second. The second is the more potent here.

First: COc1cn(Cc2ccccc2)c(Nc2cc(-c3cccnc3)ccc2C)nc1=O [Compound I-0690]
Second: COc1cn(Cc2ccc(F)c(Cl)c2)c(Nc2cc(-c3cccnc3)ccc2C)nc1=O [Compound I-0696]
The IC50 of the first is higher: 10 to 100 nM for the first, under 10 nM for the second.

First: COc1cn(Cc2ccccc2)c(Nc2cc(OC(F)(F)F)ccc2C)nc1=O [Compound I-0691]
Second: COc1cn(Cc2ccc(F)c(Cl)c2)c(Nc2cc(OC(F)(F)F)ccc2C)nc1=O [Compound I-0692]
The IC50 of the first is higher: 100 to 500 nM for the first, 10 to 100 nM for the second.

`COc1cn(Cc2ccc(F)c(F)c2)c(Nc2cc(OC(F)(F)F)ccc2C)nc1=O` [Compound I-0693] and `COc1cn(Cc2cc(F)cc(F)c2)c(Nc2cc(OC(F)(F)F)ccc2C)nc1=O` [Compound I-0695] fall in the same range of IC50: 10 to 100 nM for the first, 10 to 100 nM for the second.

First: COc1cn(Cc2cc(F)cc(Cl)c2)c(Nc2cc(OC(F)(F)F)ccc2C)nc1=O [Compound I-0694]
Second: C=C(C)c1ccc(C)c(Nc2nc(=O)c(OC)cn2Cc2cc(F)cc(Cl)c2)c1 [Compound I-0748]
The IC50 of the first is higher: 100 to 500 nM for the first, 10 to 100 nM for the second.

`COc1cn(Cc2cc(F)c(F)c(F)c2)c(Nc2cc3sc(C)nc3cc2C)nc1=O` [Compound I-0697] and `COc1cn(Cc2cc(F)c(F)c(F)c2)c(Nc2cc(C)c(F)cc2C)nc1=O` [Compound I-0712] cannot be ordered by IC50: under 10 nM for the first, under 10 nM for the second.

`Cc1ccc(-c2nnco2)cc1Nc1nc(=O)c(Cl)cn1Cc1cc(F)cc(F)c1` [Compound I-0699] and `Cc1ccc(N2CCCC2=O)cc1Nc1nc(=O)c(Cl)cn1Cc1cc(F)cc(F)c1` [Compound I-0701] cannot be ordered by IC50: under 10 nM for the first, under 10 nM for the second.

`Cc1ccc(N2CCCC2=O)cc1Nc1nc(=O)c(F)cn1Cc1cc(F)cc(F)c1` [Compound I-0700] and `Cc1cc(Nc2nc(=O)c(F)cn2Cc2cc(F)cc(F)c2)c2cc[nH]c2c1` [Compound I-0705] cannot be ordered by IC50: under 10 nM for the first, under 10 nM for the second.

`COc1cn(Cc2cc(F)c(F)c(F)c2)c(Nc2cc3c(cc2C)OCCO3)nc1=O` [Compound I-0708] and `COc1cn(Cc2cc(F)cc(F)c2)c(Nc2cc3c(cc2C)OCCO3)nc1=O` [Compound I-0709] cannot be ordered by IC50: under 10 nM for the first, under 10 nM for the second.

`COc1cn(Cc2cc(F)cc(Cl)c2)c(Nc2cc3c(cc2C)OCCO3)nc1=O` [Compound I-0710] and `COc1cn(Cc2cc(F)cc(F)c2)c(Nc2cc3c(cc2C)OCO3)nc1=O` [Compound I-0741] fall in the same range of IC50: 10 to 100 nM for the first, 10 to 100 nM for the second.

`COc1cn(Cc2ccccc2)c(Nc2cc3c(cc2C)OC(F)(F)O3)nc1=O` [Compound I-0711] and `CCc1cc2c(cc1Nc1nc(=O)c(OC)cn1Cc1ccccc1)OC(F)(F)O2` [Compound I-0728] fall in the same range of IC50: 100 to 500 nM for the first, 100 to 500 nM for the second.

`CCOc1cn(Cc2ccccc2)c(Nc2cc(C)c(OC)cc2C)nc1=O` [Compound I-0713] and `CCOc1cn(Cc2ccccc2)c(Nc2cc(C)cc(OC)c2C)nc1=O` [Compound I-0717] cannot be ordered by IC50: under 10 nM for the first, under 10 nM for the second.

`CCOc1cn(Cc2ccc(F)c(Cl)c2)c(Nc2cc(C)c(OC)cc2C)nc1=O` [Compound I-0714] and `CCOc1cn(Cc2ccc(F)c(Cl)c2)c(Nc2cc(C)cc(OC)c2C)nc1=O` [Compound I-0716] cannot be ordered by IC50: under 10 nM for the first, under 10 nM for the second.

`COc1cc(Nc2nc(=O)c(OC)cn2Cc2cc(F)c(F)c(F)c2)c(C)cc1C` [Compound I-0715] and `COc1cc(C)c(Nc2nc(=O)c(OC)cn2Cc2cc(F)cc(F)c2)cc1F` [Compound I-0721] cannot be ordered by IC50: under 10 nM for the first, under 10 nM for the second.

First: COc1cc(C)c(Nc2nc(=O)c(OC)cn2Cc2ccccc2)cc1F [Compound I-0718]
Second: COc1cc(C)c(Nc2nc(=O)c(OC)cn2Cc2ccc(F)c(Cl)c2)cc1F [Compound I-0719]
The IC50 of the first is higher: 10 to 100 nM for the first, under 10 nM for the second. The second is the more potent here.

`C=C(C)c1ccc(C)c(Nc2nc(=O)c(OC)cn2Cc2ccccc2)c1` [Compound I-0722] and `COc1cn(Cc2ccccc2)c(Nc2cc(C(C)(C)O)ccc2C)nc1=O` [Compound I-0731] fall in the same range of IC50: 10 to 100 nM for the first, 10 to 100 nM for the second.

`C=C(C)c1ccc(C)c(Nc2nc(=O)c(OC)cn2Cc2ccc(F)c(Cl)c2)c1` [Compound I-0723] and `C=C(C)c1ccc(C)c(Nc2nc(=O)c(OC)cn2Cc2cc(F)cc(F)c2)c1` [Compound I-0749] fall in the same range of IC50: 10 to 100 nM for the first, 10 to 100 nM for the second.

Compared with `COc1cn(Cc2ccccc2)c(Nc2c(C)cccc2C)nc1=O` [Compound I-0724], `COc1cn(Cc2ccccc2)c(Nc2cc(S(C)(=O)=O)cc(C)c2C)nc1=O` [Compound I-0754] is lower in IC50: 100 to 500 nM for the first, 10 to 100 nM for the second.

`COc1cn(Cc2cc(F)cc(F)c2)c(Nc2cc3c(cc2C)OC(F)(F)O3)nc1=O` [Compound I-0726] and `CCc1cc2c(cc1Nc1nc(=O)c(OC)cn1Cc1cc(F)cc(F)c1)OC(F)(F)O2` [Compound I-0729] fall in the same range of IC50: 100 to 500 nM for the first, 100 to 500 nM for the second.

First: COc1cn(Cc2ccc(F)c(Cl)c2)c(Nc2cc3c(cc2C)OC(F)(F)O3)nc1=O [Compound I-0727]
Second: COc1cn(Cc2ccc(F)c(Cl)c2)c(Nc2cc3nc(C)sc3cc2C)nc1=O [Compound I-0746]
The IC50 of the first is higher: 100 to 500 nM for the first, 10 to 100 nM for the second. The second is the more potent here.

`COc1cn(Cc2ccc(F)c(F)c2)c(Nc2cc(C(C)(C)O)ccc2C)nc1=O` [Compound I-0732] and `COc1cn(Cc2ccc(F)c(F)c2)c(Nc2cc(N3CCOCC3)ccc2C)nc1=O` [Compound I-0736] fall in the same range of IC50: 10 to 100 nM for the first, 10 to 100 nM for the second.

`COc1cn(Cc2ccc(F)c(Cl)c2)c(Nc2cc(-c3ccnn3C)ccc2C)nc1=O` [Compound I-0733] and `COc1cn(Cc2cc(F)cc(Cl)c2)c(Nc2cc(-c3ccnn3C)ccc2C)nc1=O` [Compound I-0734] fall in the same range of IC50: 10 to 100 nM for the first, 10 to 100 nM for the second.

`COc1cn(Cc2ccc(F)c(Cl)c2)c(Nc2cc(N3CCOCC3)ccc2C)nc1=O` [Compound I-0735] and `COc1cn(Cc2cc(F)cc(Cl)c2)c(Nc2cc(N3CCOCC3)ccc2C)nc1=O` [Compound I-0737] fall in the same range of IC50: 10 to 100 nM for the first, 10 to 100 nM for the second.

`COc1ccc(Nc2nc(=O)c(OC)cn2Cc2ccc(F)cc2)c(C)c1` [Compound I-0739] and `COc1cn(Cc2ccccc2)c(Nc2cc(-c3cscn3)ccc2C)nc1=O` [Compound I-0750] fall in the same range of IC50: 10 to 100 nM for the first, 10 to 100 nM for the second.

First: COc1cn(Cc2ccccc2)c(Nc2cc(N3CCOCC3)ccc2C)nc1=O [Compound I-0740]
Second: COc1cn(Cc2cc(F)cc(Cl)c2)c(Nc2cc(-c3cscn3)ccc2C)nc1=O [Compound I-0752]
The IC50 of the first is higher: 100 to 500 nM for the first, 10 to 100 nM for the second.

`CCc1cc2c(cc1Nc1nc(=O)c(OC)cn1Cc1cc(F)cc(F)c1)OCO2` [Compound I-0743] and `COc1cn(Cc2cc(F)cc(F)c2)c(Nc2cc(S(C)(=O)=O)cc(C)c2C)nc1=O` [Compound I-0758] fall in the same range of IC50: 10 to 100 nM for the first, 10 to 100 nM for the second.

First: COc1cn(Cc2cc(F)cc(F)c2)c(Nc2cc3nc(C)sc3cc2C)nc1=O [Compound I-0745]
Second: COc1cn(Cc2cc(F)cc(Cl)c2)c(Nc2cc(S(C)(=O)=O)cc(C)c2C)nc1=O [Compound I-0757]
The IC50 of the first is higher: 100 to 500 nM for the first, 10 to 100 nM for the second.

For `COc1cn(Cc2ccc(F)c(F)c2)c(Nc2cc(S(C)(=O)=O)cc(C)c2C)nc1=O` [Compound I-0756], the IC50 was 10 to 100 nM.
